Assay results taken from ChEMBL document CHEMBL6071147, “A novel 7-phenoxy-benzimidazole derivative as a potent and orally available BRD4 inhibitor for the treatment of melanoma” (Bioorg Med Chem, 2024).

Biological target: Bromodomain testis-specific protein (Homo sapiens, UniProt Q58F21)
Assay: Displacement of [Lys(5,8,12,16)Ac]H4(1 to 21)-biotin from BRDT-BD1 (unknown origin) by TR-FRET assay

## Cn1cc(-c2ccc3nc(C4CCOCC4)[nH]c3c2Oc2ccccc2)ccc1=O
  IC50: 22 nM
